Counter-ions that a name gives are not always drawn.
System: SB.msgc-1
Test: AC50 for growth inhibition (viability) (log10 M); higher = less potent
Conditions: SB.msgc-1 (sporadic gastric cancer)
Procedure, shortened: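 In 1536-well plates, each well held 500 patient-derived gastric cancer cells (hereditary or sporadic) in 5 μL medium. Compound in DMSO, 23 nL per well, was pinned in 11 threefold dilutions starting at a final 46 μM. Following 48 h of exposure, cells had CellTiter-Glo for 30 min at room temperature before ViewLux luminescence reading. Only high-quality curve classes from four-parameter fits of DMSO-normalised viability gave the log half-maximal activity concentration.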

C[C@H]1[C@H](O)O[C@@H]2O[C@@]3(C)CC[C@H]4[C@H](C)CC[C@@H]1[C@@]24OO3 [Artenimol]
AC50 for growth inhibition (log10 M): -5.68

CC(C)c1c(C(=O)Nc2ccccc2)c(-c2ccccc2)c(-c2ccc(F)cc2)n1CC[C@@H](O)C[C@@H](O)CC(=O)[O-] [Atorvastatin calcium]
AC50 for growth inhibition (log10 M): -4.68

CC[P](CC)(CC)=[Au][S][C@@H]1OC(COC(C)=O)[C@@H](OC(C)=O)[C@H](OC(C)=O)C1OC(C)=O (stereo partly drawn) [Auranofin]
AC50 for growth inhibition (log10 M): -5.53

NC(=O)[C@@H](CCC(F)(F)F)N(Cc1ccc(-c2ncon2)cc1F)[S+](=O)([O-])c1ccc(Cl)cc1 [Avagacestat]
AC50 for growth inhibition (log10 M): -4.83

CC(C)c1cc(C(C)C)c(CC(=O)N[S+](=O)([O-])Oc2c(C(C)C)cccc2C(C)C)c(C(C)C)c1 [Avasimibe]
AC50 for growth inhibition (log10 M): -4.78

CNC(=O)c1ccccc1Sc1ccc2c(/C=C/c3ccccn3)n[nH]c2c1 [Axitinib]
AC50 for growth inhibition (log10 M): -4.68

Cn1cnc([N+](=O)[O-])c1Sc1ncnc2nc[nH]c12 [Azathioprine]
AC50 for growth inhibition (log10 M): -5.43

CCc1cc(/C(C)=N/OCc2ccc(C3CCCCC3)c(C(F)(F)F)c2)ccc1CN1CC(C(=O)O)C1 [BAF-312]
AC50 for growth inhibition (log10 M): -4.73

Cc1nc2cnc3ccc(C#Cc4cccnc4)cc3c2n1-c1ccc(C(C)(C)C#N)cc1 [BAG-956]
AC50 for growth inhibition (log10 M): -5.93

CC[C@@H]1C(=O)N(C)c2cnc(Nc3ccc(C(=O)NC4CCN(C)CC4)cc3OC)nc2N1C1CCCC1 [BI-2536]
AC50 for growth inhibition (log10 M): -7.28

C/C(=C\C(=O)Nc1ccccc1C(=O)O)c1ccc2ccccc2c1 [BIBR 1532]
AC50 for growth inhibition (log10 M): -4.78

Cc1nc(NC(=O)N2CCC[C@H]2C(N)=O)sc1-c1ccnc(C(C)(C)C(F)(F)F)c1 [BYL-719]
AC50 for growth inhibition (log10 M): -4.88

C[C@H]1CC2C3CCC/4=C/C(=O)/C=C\[C@]4(C)[C@@]3(F)[C@@H](O)C[C@]2(C)[C@@]1(O)C(=O)CO (stereo partly drawn) [Betamethasone]
AC50 for growth inhibition (log10 M): -4.88

C=C(C)[C@@H]1CC[C@]2(C(=O)O)CC[C@]3(C)[C@H](CC[C@@H]4[C@@]5(C)CC[C@H](O)C(C)(C)[C@@H]5CC[C@]43C)[C@@H]12 [Betulinic acid]
AC50 for growth inhibition (log10 M): -4.83

CC(C)(C)[C@]1(O)C[C@@H]2OC(=O)C[C@@]23C(=O)O[C@@H]2OC(=O)[C@H](O)C213 (stereo partly drawn) [Bilobalide]
AC50 for growth inhibition (log10 M): -4.93

CC(C)(OCc1nn(Cc2ccccc2)c2ccccc12)C(=O)O [Bindarit]
AC50 for growth inhibition (log10 M): -5.08

COc1cc(Nc2c(C#N)cnc3cc(OCCCN4CCN(C)CC4)c(OC)cc23)c(Cl)cc1Cl [Bosutinib]
AC50 for growth inhibition (log10 M): -5.58

CCCC1OC2C[C@H]3[C@@H]4CCC5=CC(=O)C=C[C@]5(C)[C@H]4C(O)C[C@]3(C)[C@]2(C(=O)CO)O1 (stereo partly drawn) [Budesonide]
AC50 for growth inhibition (log10 M): -4.68

Clc1ccc(CCC(Cn2ccnc2)Sc2c(Cl)cccc2Cl)cc1 (stereo not drawn) [Butoconazole nitrate]
AC50 for growth inhibition (log10 M): -4.68

C=C1C(=O)OC(CCCCCCCC)C1C(=O)O (stereo not drawn) [C-75]
AC50 for growth inhibition (log10 M): -4.58

Cc1ccc(Nc2cc(-c3cccc(N4C(=O)c5ccccc5C4=O)c3)ncn2)cc1N[S+](C)(=O)[O-] [CDK9 inhibitor]
AC50 for growth inhibition (log10 M): -4.63

Cn1c(Nc2ccc(C(F)(F)F)cc2)nc2cc(Oc3ccnc(-c4nc(C(F)(F)F)c[nH]4)c3)ccc21 [CHIR-265]
AC50 for growth inhibition (log10 M): -6.68

Clc1ccc(-c2nc3sccn3c2/C=N/OCc2ccc(Cl)c(Cl)c2)cc1 [CITCO]
AC50 for growth inhibition (log10 M): -4.73

CCCn1c(=O)c2[nH]c(-c3cnn(Cc4cccc(C(F)(F)F)c4)c3)nc2n(CC)c1=O [CVT-6883]
AC50 for growth inhibition (log10 M): -4.68

CN1CCCN(C(=O)c2cccc(-c3ccc(/C=C4/C(=O)Nc5ccc(Cl)cc54)o3)c2)CC1 [CX-6258]
AC50 for growth inhibition (log10 M): -4.73

Cc1nc(N)sc1-c1ccnc(Nc2ccc(N3CCOCC3)cc2)n1 [CYC-116]
AC50 for growth inhibition (log10 M): -4.63

O=C(O)/C=C/c1ccc(O)c(O)c1 [Caffeic acid]
AC50 for growth inhibition (log10 M): -4.88

CC(N[C@H]1CCCC[C@@H]1NC(=O)c1ccc(Cl)cc1)c1cccc2ccccc12 (stereo partly drawn) [Calhex 231]
AC50 for growth inhibition (log10 M): -5.93

Clc1ccc(C(c2ccc(Cl)cc2)[n+]2ccn(CC(OCc3ccc(Cl)cc3Cl)c3ccc(Cl)cc3Cl)c2)cc1 (stereo not drawn) [Calmidazolium chloride]
AC50 for growth inhibition (log10 M): -4.68

NC(=O)c1nnn(Cc2cc(Cl)c(C(=O)c3ccc(Cl)cc3)c(Cl)c2)c1N [Carboxyamidotriazole]
AC50 for growth inhibition (log10 M): -5.03

Cc1ccc(-c2cc(C(F)(F)F)nn2-c2ccc([S+](N)(=O)[O-])cc2)cc1 [Celecoxib]
AC50 for growth inhibition (log10 M): -4.78

O=C(O)CCCc1ccc(N(CCCl)CCCl)cc1 [Chlorambucil]
AC50 for growth inhibition (log10 M): -5.33

C=C[C@H]1CN2CCC1C[C@H]2[C@H](O)c1ccnc2ccccc12 (stereo partly drawn) [Cinchonidine]
AC50 for growth inhibition (log10 M): -4.98

CN(C)CCCC1(c2ccc(F)cc2)OCc2cc(C#N)ccc21 (stereo not drawn) [Citalopram hydrobromide]
AC50 for growth inhibition (log10 M): -4.83

CCCCCCCCCCCCCCCC(=O)O[C@@H]1[C@@H](O)[C@@H](O)[C@@H]([C@H](NC(=O)[C@@H]2C[C@@H](CCC)CN2C)[C@H](C)Cl)O[C@@H]1SC.Cl [Clindamycin palmitate]
AC50 for growth inhibition (log10 M): -4.78

Clc1ccccc1C(c1ccccc1)(c1ccccc1)n1ccnc1 [Clotrimazole]
AC50 for growth inhibition (log10 M): -4.83

Nc1ncnc2c1ncn2[C@@H]1O[C@H](CO)C[C@H]1O [Cordycepin]
AC50 for growth inhibition (log10 M): -4.73

C=C1C(=O)OC2/C=C(/C)CC/C=C(/C)CCC12 (stereo not drawn) [Costunolide]
AC50 for growth inhibition (log10 M): -4.68

CC1(COc2ccc3c(c2)ncn3-c2ccc3cccc(N4CCC(N)CC4)c3n2)COC1 [Crenolanib]
AC50 for growth inhibition (log10 M): -7.38

C/C=C/C(=O)N(CC)c1ccccc1C [Crotamiton]
AC50 for growth inhibition (log10 M): -4.98

COc1cc(/C=C/C(=O)CC(=O)/C=C/c2ccc(O)c(OC)c2)ccc1O [Curcumin]
AC50 for growth inhibition (log10 M): -4.37

NC\1=N\C(=O)N(\C=C1)[C@@H]2O[C@H](CO)[C@@H](O)[C@@H]2O [Cytarabine]
AC50 for growth inhibition (log10 M): -7.18

NC(=O)c1ccc(-c2nc(-c3ccc4c(c3)OCCO4)c(-c3ccccn3)[nH]2)cc1 [D-4476]
AC50 for growth inhibition (log10 M): -4.73

CCCCCCCCCCCCCC(=O)N[C@H](CO)[C@H](O)c1ccc([N+](=O)[O-])cc1 [D-NMAPPD]
AC50 for growth inhibition (log10 M): -4.93

CNC(=O)c1cc(Oc2ccc(NC(=O)Nc3cc(C(C)(C)C)nn3-c3ccc4ncccc4c3)c(F)c2)ccn1 [DCC-2036]
AC50 for growth inhibition (log10 M): -5.63

CCCCCN(CCC12CC3CC(CC(C3)C1)C2)C(=O)NCCCc1ccncc1 [DE-096]
AC50 for growth inhibition (log10 M): -4.73

CO[C@@H](C(=O)N1Cc2[nH]nc(NC(=O)c3ccc(N4CCN(C)CC4)cc3)c2C1)c1ccccc1 [Danusertib]
AC50 for growth inhibition (log10 M): -5.53

O=C(/C=C/c1cccnc1)NCCCCC1CCN(C(=O)c2ccccc2)CC1 [Daporinad]
AC50 for growth inhibition (log10 M): -6.08
